Source: ChEMBL document CHEMBL2440076, “New triarylpyrazoles as broad-spectrum anticancer agents: design, synthesis, and biological evaluation” (Eur J Med Chem, 2013)

Legend:
Assay type in all cases: functional
[1] = system: OVCAR-5; assay: Growth inhibition of human OVCAR5 cells assessed as cell growth at 3X10'-7 M after 48 hrs by sulforhodamine B assay; details: OVCAR-5, 48 h, read-out: Activity
[2] = system: UACC-257; assay: Growth inhibition of human UACC257 cells assessed as cell growth at 3X10'-7 M after 48 hrs by sulforhodamine B assay; details: UACC-257, 48 h, read-out: Activity
[3] = system: MDA-MB-435; assay: Growth inhibition of human MDA-MB-435 cells assessed as cell growth at 3X10'-7 M after 48 hrs by sulforhodamine B assay; details: MDA-MB-435, 48 h, read-out: Activity
[4] = system: LOX IMVI; assay: Growth inhibition of human LOXIMVI cells assessed as cell growth at 3X10'-7 M after 48 hrs by sulforhodamine B assay; details: read-out: Activity
[5] = system: U-251; assay: Growth inhibition of human U251 cells assessed as cell growth at 3X10'-7 M after 48 hrs by sulforhodamine B assay; details: U-251, 48 h, read-out: Activity
[6] = system: SF-268; assay: Growth inhibition of human SF268 cells assessed as cell growth at 3X10'-7 M after 48 hrs by sulforhodamine B assay; details: SF-268, 48 h, read-out: Activity
[7] = system: NCI-H226; assay: Growth inhibition of human NCI-H226 cells assessed as cell growth at 3X10'-7 M after 48 hrs by sulforhodamine B assay; details: NCI-H226, 48 h, read-out: Activity
[8] = system: A549; assay: Growth inhibition of human A549/ATCC cells assessed as cell growth at 3X10'-7 M after 48 hrs by sulforhodamine B assay; details: A549, 48 h, read-out: Activity
[9] = system: MDA-MB-468; assay: Growth inhibition of human MDA-MB-468 cells assessed as cell growth at 3X10'-8 M after 48 hrs by sulforhodamine B assay; details: MDA-MB-468, 48 h, read-out: Activity
[10] = Growth inhibition of human Hs 578T cells assessed as cell growth at 3X10'-8 M after 48 hrs by sulforhodamine B assay; details: read-out: Activity
[11] = system: ACHN; assay: Growth inhibition of human ACHN cells assessed as cell growth at 3X10'-8 M after 48 hrs by sulforhodamine B assay; details: read-out: Activity
[12] = system: A498; assay: Growth inhibition of human A498 cells assessed as cell growth at 3X10'-8 M after 48 hrs by sulforhodamine B assay; details: A498, 48 h, read-out: Activity
[13] = system: MDA-MB-231; assay: Growth inhibition of human MDA-MB-231 cells assessed as cell growth at 3X10'-5 M after 48 hrs by sulforhodamine B assay; details: MDA-MB-231, 48 h, read-out: Activity
[14] = system: DU-145; assay: Growth inhibition of human DU145 cells assessed as cell growth at 3X10'-5 M after 48 hrs by sulforhodamine B assay; details: DU-145, 48 h, read-out: Activity
[15] = system: OVCAR-5; assay: Growth inhibition of human OVCAR5 cells assessed as cell growth at 3X10'-8 M after 48 hrs by sulforhodamine B assay; details: OVCAR-5, 48 h, read-out: Activity
[16] = system: U-251; assay: Growth inhibition of human U251 cells assessed as cell growth at 3X10'-8 M after 48 hrs by sulforhodamine B assay; details: U-251, 48 h, read-out: Activity
[17] = system: HCT-116; assay: Growth inhibition of human HCT116 cells assessed as cell growth at 3X10'-8 M after 48 hrs by sulforhodamine B assay; details: HCT-116, 48 h, read-out: Activity
[18] = system: NCI-H522; assay: Growth inhibition of human NCI-H522 cells assessed as cell growth at 3X10'-8 M after 48 hrs by sulforhodamine B assay; details: NCI-H522, 48 h, read-out: Activity
[19] = system: UO-31; assay: Growth inhibition of human UO31 cells assessed as cell growth at 3X10'-9 M after 48 hrs by sulforhodamine B assay; details: UO-31, 48 h, read-out: Activity
[20] = system: A498; assay: Growth inhibition of human A498 cells assessed as cell growth at 3X10'-9 M after 48 hrs by sulforhodamine B assay; details: A498, 48 h, read-out: Activity
[21] = system: OVCAR-4; assay: Growth inhibition of human OVCAR4 cells assessed as cell growth at 3X10'-9 M after 48 hrs by sulforhodamine B assay; details: OVCAR-4, 48 h, read-out: Activity
[22] = system: MDA-MB-435; assay: Growth inhibition of human MDA-MB-435 cells assessed as cell growth at 3X10'-5 M after 48 hrs by sulforhodamine B assay; details: MDA-MB-435, 48 h, read-out: Activity
[23] = system: U-251; assay: Growth inhibition of human U251 cells assessed as cell growth at 3X10'-5 M after 48 hrs by sulforhodamine B assay; details: U-251, 48 h, read-out: Activity
[24] = system: MOLT-4; assay: Growth inhibition of human MOLT4 cells assessed as cell growth at 3X10'-5 M after 48 hrs by sulforhodamine B assay; details: MOLT-4, 48 h, read-out: Activity
[25] = system: UACC-62; assay: Growth inhibition of human UACC62 cells assessed as cell growth at 3X10'-9 M after 48 hrs by sulforhodamine B assay; details: UACC-62, 48 h, read-out: Activity
[26] = system: SK-MEL-5; assay: Growth inhibition of human SK-MEL-5 cells assessed as cell growth at 3X10'-9 M after 48 hrs by sulforhodamine B assay; details: SK-MEL-5, 48 h, read-out: Activity
[27] = system: SW-620; assay: Growth inhibition of human SW620 cells assessed as cell growth at 3X10'-9 M after 48 hrs by sulforhodamine B assay; details: SW-620, 48 h, read-out: Activity
[28] = system: HT-29; assay: Growth inhibition of human HT-29 cells assessed as cell growth at 3X10'-9 M after 48 hrs by sulforhodamine B assay; details: HT-29, 48 h, read-out: Activity
[29] = Growth inhibition of human HCC2998 cells assessed as cell growth at 3X10'-9 M after 48 hrs by sulforhodamine B assay; details: HCC 2998, 48 h, read-out: Activity
[30] = system: HOP-62; assay: Growth inhibition of human HOP62 cells assessed as cell growth at 3X10'-9 M after 48 hrs by sulforhodamine B assay; details: HOP-62, 48 h, read-out: Activity
[31] = system: OVCAR-8; assay: Growth inhibition of human OVCAR8 cells assessed as cell growth at 3X10'-6 M after 48 hrs by sulforhodamine B assay; details: OVCAR-8, 48 h, read-out: Activity
[32] = system: SK-MEL-5; assay: Growth inhibition of human SK-MEL-5 cells assessed as cell growth at 3X10'-6 M after 48 hrs by sulforhodamine B assay; details: SK-MEL-5, 48 h, read-out: Activity
[33] = system: LOX IMVI; assay: Growth inhibition of human LOXIMVI cells assessed as cell growth at 3X10'-6 M after 48 hrs by sulforhodamine B assay; details: read-out: Activity
[34] = system: MDA-MB-468; assay: Growth inhibition of human MDA-MB-468 cells assessed as cell growth at 3X10'-7 M after 48 hrs by sulforhodamine B assay; details: MDA-MB-468, 48 h, read-out: Activity
[35] = system: MCF7; assay: Growth inhibition of human MCF7 cells assessed as cell growth at 3X10'-7 M after 48 hrs by sulforhodamine B assay; details: MCF7, 48 h, read-out: Activity

| Structure (SMILES) | growth at 0.3 µM [1] [%] | growth at 0.3 µM [2] [%] | growth at 0.3 µM [3] [%] | growth at 0.3 µM [4] [%] | growth at 0.3 µM [5] [%] | growth at 0.3 µM [6] [%] | growth at 0.3 µM [7] [%] | growth at 0.3 µM [8] [%] | growth at 0.03 µM [9] [%] | growth at 0.03 µM [10] [%] | growth at 0.03 µM [11] [%] | growth at 0.03 µM [12] [%] | growth at 30 µM [13] [%] | growth at 30 µM [14] [%] | growth at 0.03 µM [15] [%] | growth at 0.03 µM [16] [%] | growth at 0.03 µM [17] [%] | growth at 0.03 µM [18] [%] | growth at 0.003 µM [19] [%] | growth at 0.003 µM [20] [%] | further results |
| --- | --- | --- | --- | --- | --- | --- | --- | --- | --- | --- | --- | --- | --- | --- | --- | --- | --- | --- | --- | --- | --- |
| COc1cc(-c2nn(-c3cccc(NC(=O)Nc4ccc(Cl)c(C(F)(F)F)c4)c3)cc2-c2ccncc2)ccc1Cl | 89 | 91 | 91 | 97 | 90 | 97 | 85 | 89 | 90 | 89 | 98 | 93 | -76 | 2 | 89 | 94 | 103 | 104 | 92 | 90 | growth at 0.003 µM [21]: 96%; growth at 30 µM [22]: -50%; growth at 30 µM [23]: -58%; growth at 30 µM [24]: -15%; growth at 0.003 µM [25]: 95%; growth at 0.003 µM [26]: 98%; growth at 0.003 µM [27]: 101%; growth at 0.003 µM [28]: 105%; growth at 0.003 µM [29]: 102%; growth at 0.003 µM [30]: 95%; growth at 3 µM [31]: 5%; growth at 3 µM [32]: -5%; growth at 3 µM [33]: 13%; growth at 0.3 µM [34]: 81%; growth at 0.3 µM [35]: 87% |
| O=C(Nc1cccc(-n2cc(-c3ccncc3)c(-c3ccc(Cl)c(O)c3)n2)c1)Nc1ccc(Cl)c(Cl)c1 | 104 | 93 | 91 | 90 | 100 | 102 | 94 | 85 | 90 | 71 | 103 | 95 | -22 | 9 | 96 | 100 | 100 | 94 | 86 | 103 | growth at 0.003 µM [21]: 103%; growth at 30 µM [22]: -38%; growth at 30 µM [23]: -28%; growth at 30 µM [24]: 6%; growth at 0.003 µM [25]: 99%; growth at 0.003 µM [26]: 96%; growth at 0.003 µM [27]: 100%; growth at 0.003 µM [28]: 100%; growth at 0.003 µM [29]: 95%; growth at 0.003 µM [30]: 96%; growth at 3 µM [31]: 16%; growth at 3 µM [32]: -73%; growth at 3 µM [33]: 3%; growth at 0.3 µM [34]: 76%; growth at 0.3 µM [35]: 94% |
| COc1cc(-c2nn(-c3cccc(NC(=O)c4ccc(Cl)c(C(F)(F)F)c4)c3)cc2-c2ccncc2)ccc1Cl | 90 | 90 | 87 | 86 | 91 | 89 | 84 | 92 | 91 | 91 | 100 | 89 | 3 | 10 | 96 | 99 | 101 | 94 | 82 | 95 | growth at 0.003 µM [21]: 98%; growth at 30 µM [22]: -52%; growth at 30 µM [23]: 15%; growth at 30 µM [24]: 24%; growth at 0.003 µM [25]: 99%; growth at 0.003 µM [26]: 99%; growth at 0.003 µM [27]: 98%; growth at 0.003 µM [28]: 90%; growth at 0.003 µM [29]: 95%; growth at 0.003 µM [30]: 98%; growth at 3 µM [31]: 50%; growth at 3 µM [32]: 24%; growth at 3 µM [33]: 39%; growth at 0.3 µM [34]: 89%; growth at 0.3 µM [35]: 89% |
| O=C(Nc1cccc(-n2cc(-c3ccncc3)c(-c3ccc(Cl)c(O)c3)n2)c1)Nc1ccc(Cl)c(C(F)(F)F)c1 | 88 | 93 | 86 | 87 | 82 | 93 | 82 | 86 | 85 | 88 | 98 | 91 | -60 | -58 | 85 | 96 | 106 | 101 | 94 | 91 | growth at 0.003 µM [21]: 99%; growth at 30 µM [22]: -54%; growth at 30 µM [23]: -80%; growth at 30 µM [24]: -32%; growth at 0.003 µM [25]: 98%; growth at 0.003 µM [26]: 99%; growth at 0.003 µM [27]: 100%; growth at 0.003 µM [28]: 97%; growth at 0.003 µM [29]: 100%; growth at 0.003 µM [30]: 97%; growth at 3 µM [31]: -16%; growth at 3 µM [32]: -81%; growth at 3 µM [33]: -71%; growth at 0.3 µM [34]: 72%; growth at 0.3 µM [35]: 71% |
